Results: a melting point compilation (Tetko et al.; mined from patent text by program, amines drawn as free bases though some values may be those of a salt)

| Structure (SMILES) | melting point [°C] |
| --- | --- |
| CCCC(CCC)CCCC1COCCN1CCCCCO (centres undefined) | 59 to 60 |
| N#CC1CN1C(=O)NSC(F)(F)F (centres undefined) | 83 to 85 |
| Cc1ccc2cccc(OCc3c(Cl)ccc(N(C)C(=O)CNC(=O)CN4CCN(c5ccc([N+](=O)[O-])cc5)CC4)c3Cl)c2n1 | 178 to 181 |
| COC(=O)C(=CC1C(C(=O)O)C1(C)C)OC (centres undefined) | 78 |
| CC1(C)OCc2cc(C(O)CNCCCCCCOCCCCc3ccccc3)ccc2O1 (centres undefined) | 68 to 70 |
| CCc1cc(S)n2nccc2n1 | 178 to 180 |
| CCCCCCCCc1ccc(N(c2ccc(CCCCCCCC)cc2)C2(c3ccc(N(C)C)cc3)OC(=O)c3cc(N(C)C)ccc32)cc1 (centres undefined) | 208 to 210 |
| COCn1cnc(N2CCc3ccccc3CC2)c(C#N)c1=O | 119 to 124 |
| CN1C(=O)C2(COc3cc4c(cc32)OCCO4)c2c(NC(=O)C3CC3)cccc21 (centres undefined) | 266 to 268 |
| CCOc1cccc(CNCCc2ccccc2)c1O | 88 to 90 |
| COc1cc(OC)cc(Sc2ccccc2C(=O)O)c1 | 182 |
| COc1cccc(OCCCc2cn(-c3ccc(C(F)(F)F)cn3)nc2C(C)C)c1CC(=O)O | 183 to 184 |
| CCOC(=O)C1=C(C)NC2=C(C(=O)OC2)C1c1cccs1 (centres undefined) | 232 |
| O=S1(=O)NC(Cc2ccccc2)Nc2ccc(S(=O)(=O)N3CCCCC3)cc21 (centres undefined) | 242 to 244 |
| Cc1cc(C)c2ncc(NC(=O)c3cc(C(C)C)c(O)c(C(C)C)c3)c(-c3ccccc3Cl)c2c1 | 237 to 238 |
| Cn1ncc(C(=O)O)c1C(=O)Nc1ccn2nc(-c3cccc(F)n3)nc2c1 | > 290 |
| CCN1C(=O)CCc2cc(Sc3cccc([C@@]4(O)CCO[C@@H](C)C4)c3)ccc21 | 148 to 149 |
| CC(=O)Nc1cc(N)c(F)cc1Cl | 176 to 178 |
| COc1cc(CC(C#N)=CNc2ccccc2)cc(OC)c1C(N)=O | 288 to 290 |
| Nc1nc2c(s1)CC(CN1CCN(c3ccccn3)CC1)CC2 (centres undefined) | 177 to 179 |
| CCOC(C#CC(=O)c1cc(OC)c(OC)c(OC)c1)OCC | 52 to 54 |

| Structure (SMILES) | melting point [°C] |
| --- | --- |
| Cc1noc(NS(=O)(=O)c2cc(Br)c(Br)s2)c1Br | 153 to 155 |
| CCCCNC(=O)NS(=O)(=O)Cc1c(C(=O)OC)cccc1S(=O)(=O)N(C)C | 118 to 134 |
| CCCc1cc(I)ccc1O | 54 to 56 |
| O=C(NCCO)c1cnc(C(F)(F)F)s1 | 128 to 130 |
| C=C(C)COc1cc(C)c(NC(=O)CC(C)(C)C)c(C)c1Cc1ccc(C(C)C)cc1 | 129 to 130 |
| CN1Cc2c(-c3noc(C4CC4)n3)ncn2-c2ccccc2C1=O | 179 to 181 |
| CCCN1CCc2c(c(Br)cc([N+](=O)[O-])c2NC(C)=O)C1 | 166 to 167 |
| O=C(NN=Cc1cccnc1)NN=Cc1cccnc1 | 202 to 204 |
| CN(C)CC=CC(=O)Nc1ccc2ncc(C#N)c(Nc3cccc(Br)c3)c2c1 | 209 to 211 |
| O=C1CC(c2ccc(Cl)c(Cl)c2)Cc2[nH]c3ccc(Cl)cc3c(=O)c21 (centres undefined) | > 325 |
| COC(=O)[C@H](O)[C@@H](NC(=O)OC(C)(C)C)c1ccc(F)cc1 | 125 |
| CN1C(=O)NC(=O)CC1c1ccccc1 (centres undefined) | 155 to 156 |
| CC(=O)c1c([N+](=O)[O-])[nH]c(-c2ccncc2)c1C | 187 to 188 |
| COCCOc1cc2ncnc(Nc3cc(O)c(Cl)cc3F)c2cc1OC | > 250 |
| CCOC(=O)c1cc2cc(Oc3ccc(S(C)(=O)=O)nc3)cc(CC)c2[nH]1 | 140 to 141 |
| CC(C)Oc1ccc(OC(=O)c2ccc(C(=O)Oc3ccc(OC(C)C)cc3)cc2)cc1 | 192 to 194 |
| Cc1nnc(C=O)n1-c1ccc(Cl)cc1C(=O)c1ccccc1 | 105 to 138 |
| CC(C)(C)OC(=O)N1CCn2c(Cl)c(-c3cccc(C#N)c3)c(C(N)=O)c2C1 | 206 to 208 |
| CCCCCCC1C(=O)NC(C(=O)SCc2ccccc2)(C(O)C2C=CCCC2)C1(C)O (centres undefined) | 138 |
| Cc1nc(-n2cnn(Cc3ccc(F)cc3)c2=O)sc1-c1nn[nH]n1 | 136 to 139 |
| NCCN1C(=O)CN(c2ccc(Cl)cc2)C1=O | 142 to 145 |

| Structure (SMILES) | melting point [°C] |
| --- | --- |
| O=[N+]([O-])c1ccc(F)cc1CBr | 38 to 41 |
| CN1CCC2(CC1)Oc1ccccc1Cn1cccc12 | 100 to 101 |
| CCCCCCCCCCCC(=O)c1ccc2c(Cl)cccc2c1O | 86 to 87 |
| Cn1nc(C(F)(F)F)c(CS(=O)(=O)C2=NOC(C)(C)C2)c1OC(F)F | 129 to 130 |
| CCCn1nnn(-c2cc(O)c(F)cc2F)c1=O | 65 to 67 |
| Clc1ccc2c(C3CCN(CC4Cc5ccccc5C4)CC3)c[nH]c2c1Cl | 141 to 142 |
| CCC(=O)OC(CC)c1nc2c(C(F)(F)F)cccc2c(O)c1C(=O)Nc1ccccn1 (centres undefined) | 204 |
| CCC(CC)c1nccc2c(CC(=O)O)cccc12 | 107 to 109 |
| CCOCOC1CCC2(C)C(C1)C(=O)CC1C2CCC2(C)C1CC1OC3(CCC(C)CO3)C(C)C12 (centres undefined) | 191 to 193 |
| CCC(O)(C#Cc1ncn2c1CN(C)C(=O)c1cc(F)ccc1-2)CC | 135 to 136 |
| O=C(NOC(=O)c1ccccc1)OCc1ccccc1 | 112 |
| COc1cccc(OC)c1C(=O)Nc1cccc2c1CCN(C)C2 | 191 to 192 |
| CC(=O)Nc1cc2c3c(c1)[nH]c(=O)n3C[C@H](C)N(CC1CC1)C2 | 244 |
| CC1Cc2ccccc2N1N (centres undefined) | 37 to 38 |
| CC1CC(=O)NN=C1c1ccc(N)c(N)c1 (centres undefined) | 195 to 196 |
| CCCCCCCCCCCCCCCCCNC(=O)Oc1cccc([N+](=O)[O-])c1 | 66 to 73 |
| C=CCNc1nc(N(CC=C)CC=C)nc2ccc(Cl)cc12 | 73 to 74 |
| C[C@@H](n1cnc2ccc(Cl)cc2c1=O)[C@](O)(Cn1cncn1)c1ccc(F)cc1F | 188 to 189 |
| Cc1ccc(C(=O)Nc2nc(-c3ccccc3)c(-c3nc4ccccc4c(=O)n3-c3ccc(Cl)cc3)s2)cc1 | > 275 |
| CCCCc1nc2c(N)nc3ccccc3c2n1CCOCCS(C)(=O)=O | 168 to 170 |
| Nc1ccc(-c2ccc(Cl)cc2)c(Cl)n1 | 178 to 182 |

Further lines, results first:

| melting point [°C] | Structure (SMILES) |
| --- | --- |
| 130 | N#COc1ccc(C2(c3ccc(OC#N)cc3)OC(=O)c3ccccc32)cc1 |
| 153 to 155 | CN(C(=O)NCC(=O)O)[C@H]1O[C@H](c2ccccc2Cl)c2cc(Cl)ccc2N(Cc2ccccc2)C1=O (relative stereo) |
| 147 to 148 | O=C(O)c1cc([N+](=O)[O-])ccc1Nc1ccc(CCCCCc2ccc(Cl)c(Cl)c2)cc1 |
| 108 | COCc1cc([N+](=O)[O-])ccc1OCc1ccccc1 |
| 110 to 112 | COc1cc(OC)cc(N2CCN(C(=O)N(c3nc4ccccc4nc3OC)C(C)C)CC2)c1 |
| 154 to 155 | O=C1[C@H]2CCC[C@H]2Nc2ccccc2N1Cc1ccc([N+](=O)[O-])cc1 (relative stereo) |
| 85 to 86 | c1ccc2cc(Cc3nc4cc(CCC5OCCO5)ccc4o3)ccc2c1 |
| 95 to 100 | Nc1cccc(C(=O)NCc2ccccc2)c1 |
| 108 | COc1ccc(-c2cc(C(=O)NCc3ccccc3)c(=O)n(CC3CCCC3)n2)cc1 |
| 144 to 149 | CC(=O)N(C)c1cc(OCc2ccccc2)c2nc(C)n(C)c2c1 |
| 175 to 176 | CNC(=S)NS(=O)(=O)c1cc(CCNC(=O)/C=C/c2cccs2)ccc1-c1ccco1 |
| 196 to 197 | Cc1nnc(-c2ccc3occ(-c4ccc(S(C)=O)c(Cl)c4)c3c2)o1 (centres undefined) |
| 168 to 170 | CSc1ccc(-c2nc(=O)c3ccccc3s2)cn1 |
| 185 to 187 | COc1ccc(C(=O)n2c(C(=O)O)cc3cc(OC)ccc32)cc1 |
| 148 to 149 | O=C(O)CCCCCCCn1c(Cc2ccccc2)nc(-c2ccccc2)c1-c1ccccc1 |
| 130 to 132 | COc1ccc2cc(CC[Si](C)(C)C)c(=O)oc2c1 |
| 312 to 313 | Cc1ccc(S(=O)(=O)Nc2cccc3cc(C(N)=O)[nH]c23)cc1 |
| 204 to 206 | CCCCc1nc([N+](=O)[O-])c(CO)n1Cc1ccc(-c2ccccc2C(=O)O)cc1 |

| melting point [°C] | Structure (SMILES) |
| --- | --- |
| 172 | O=Cc1ccc2[nH]c(C(=O)OCc3ccccc3)cc2c1 |
| 192 to 194 | CN(C)C(=O)CCc1c2n(c(=O)c3ccccc13)CCc1ccccc1-2 |
| 235 to 239 | COc1ccc(-c2[nH]c(-c3ccc(NCCC(C)C)cc3)nc2C(=O)Nc2nccs2)cc1 |
| 174 to 177 | COC(=O)COc1c2c(cc3c1c1c(C(N)=O)cccc1n3Cc1ccccc1)CCCC2 |
| 236 to 238 | CC(=O)Nc1cc(=O)c2cc(Oc3ccccc3)c(NS(C)(=O)=O)cc2o1 |
| 225 to 233 | O=C(Nc1ccccc1)NC(Cc1ccccc1)C(=O)Nc1c(F)cc(F)cc1F (centres undefined) |
| 199 | O=S(=O)(c1ccc(OCCCBr)cc1)c1c(-c2ccccc2)cn2ccccc12 |
| 208 to 211 | c1ccc2cc(-c3scc4c3OCCO4)ccc2c1 |
| 260 to 264 | O=[N+]([O-])c1ccc2c(c1)C(Cc1ccncc1)(Cc1ccncc1)c1ccccc1-2 |
| 144 to 145 | O=C(Nc1ccc2c(c1)CCC2)c1ccccc1Cl |
| 174 to 176 | Cc1nc2c(o1)CCc1ccccc1C2=O |
| 135 to 136 | CC1(C)CC2(CC(C)(C)C1Cc1ccccc1)C(=O)C(Cc1ccccc1)C(=O)C2Cc1ccccc1 (centres undefined) |
| 120 to 122 | CC(C)Cc1ccc(C2(C)Oc3ccc(C(=O)O)cc3O2)cc1 (single isomer, unassigned; (-)) |
| > 225 | O=C1N(Cc2ccccn2)c2cccc(Br)c2C1(O)c1cc2c(cc1O)OCC2 (centres undefined) |
| 169 to 170 | CCCC(=O)NCCCCn1c(C)nc2c(N)nc3ccccc3c21 |
| 94 | O=C(O)CCCc1cccc(C(=O)c2ccc(Cl)cc2)c1 |
| 166 to 167 | Oc1ccc(CCc2nc(-c3cccs3)c[nH]2)cc1 |
| 152 | COC(=O)c1c(Sc2ccc(OC)cc2)nc(C)n1Cc1cc2c(cc1Cl)OCO2 |
